From paper PMC11173618, “C2-Symmetrical Terphenyl Derivatives as Small Molecule Inhibitors of Programmed Cell Death 1/Programmed Death Ligand 1 Protein–Protein Interaction” (Molecules, 2024)

What was measured:
PD-1/PD-L1 complex = molecular target: T1, PD-1/PD-L1 complex (Homo sapiens, UniProt Q9NZQ7); test: HTRF assay of PD-1/PD-L1 complex inhibition (cis-bio kit); type: binding; conditions: 1 h, scouting mode, 5 nM PD-L1, 50 nM PD-1, read-out: HTRF [%] (percentage of dissociated PD-1/PD-L1 complex)
T1 construct: purchased cis-bio
T1 sequence (Q9NZQ7 19-238 limits assumed, one chain of several): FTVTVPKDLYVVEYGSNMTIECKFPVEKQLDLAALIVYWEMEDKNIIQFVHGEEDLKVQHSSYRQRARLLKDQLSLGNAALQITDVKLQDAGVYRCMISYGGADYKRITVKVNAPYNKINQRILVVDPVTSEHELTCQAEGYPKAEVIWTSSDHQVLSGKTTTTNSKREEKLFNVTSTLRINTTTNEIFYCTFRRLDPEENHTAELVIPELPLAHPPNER
Procedure: All synthesized molecules were tested in the homogeneous time-resolved fluorescence (HTRF) assay to assess their activity as inhibitors of the PD-1/PD-L1 complex (Table 1, Table 2 and Table 3). This evaluation was conducted in scouting modes, employing concentrations of 5 μM and 0.5 μM. Based on the obtained measurements, the IC50 values were estimated for each tested compound.
The certified cis-bio assay kit was used to perform the HTRF assay. Following the standard protocol, the measurement was carried out at a 20 µL final volume with a 5 nM concentration of PD-L1 and a 50 nM concentration of PD-1 in the final formulation. […] The plate was incubated for 1 h and then read on an HTRF-certified Tecan Spark 20M microplate reader. Output data were subjected to background subtraction on negative control (without PD-1) and normalization in correlation to the positive control (without inhibitor) and were then averaged. The resulting data points were then fitted with Hill’s equation to generate IC50 using Mathematica 12. […]

[1] = molecular target: T2, human PD-L1 protein (amino acids 18-134) (Homo sapiens, UniProt Q9NZQ7); test: 1H NMR binding assay; conditions: ligand/protein 1:1, 0.2 mM PD-L1, 300 K
T2 construct: human PD-L1 protein (amino acids 18-134); made in house; host or cells: E. coli BL21 (pET-21b)
T2 sequence (Q9NZQ7 18-134): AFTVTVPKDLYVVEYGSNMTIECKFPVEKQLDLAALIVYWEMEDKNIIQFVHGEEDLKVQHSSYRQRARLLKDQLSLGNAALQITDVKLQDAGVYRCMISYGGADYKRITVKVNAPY
Procedure: NMR spectra were recorded in 10 mM Tris, pH 8.0 20 mM NaCl containing 10% (v/v) of D2O added to the samples to provide the lock signal. Water suppression was carried out using the WATERGATE sequence. All the spectra were recorded at 300 K using a Bruker AVANCE 600 MHz spectrometer (Bruker, Billerica, MA, USA) with the cryoplatform.
The spectra were recorded at the ligand/protein ratio of 1:1 unless stated otherwise. The samples were prepared by adding small amounts of a 50 mM ligand stock solution in DMSO to the protein solution (0.20 mL) of PD-L1 fragment at a concentration of 0.2 mM. […] Spectra were visualized using TopSpin 4.0.2.

Compound: COc1cccc(CNCCNC(C)=O)c1OCc1cccc(-c2cccc(-c3cccc(COc4c(CNCCNC(C)=O)cccc4OC)c3)c2C)c1 [Compound 8b, N,N’-(((((((2′-methyl-[1,1′:3′,1′′-terphenyl]-3,3′′-diyl)bis(methylene))bis(oxy))bis(3-methoxy-2,1-phenylene))bis(methylene))bis(azanediyl))bis(ethane-2,1-diyl))diacetamide]
- inhibition at 0.5 µM (PD-1/PD-L1 complex; inhibitor 0.5 µM): 88.9 ± 3.8%
- inhibition at 5 µM (PD-1/PD-L1 complex; inhibitor 5 µM): 73.6 ± 5.3%
- Binding to PD-L1 by 1H NMR (broadening of PD-L1 proton signals) [1]: affinity of the test compounds for the PD-L1 protein is confirmed
